From US9169217B2, “Arylalkyl esters of 4-amino-6-(substituted phenyl)-picolinates and 6-amino-2-(substituted phenyl)-pyrimidinecarboxylates and their use as selective herbicides for crops” (Dow AgroSciences LLC, priority 2011, dated 2015)

Assays:
[1] = tested on: Aeschynomene sensitive SW./L. (sensitive jointvetch); test: Postemergence foliar-applied herbicidal activity in direct seeded rice (Example 16); type: in vivo; settings: rice cropping systems, 17.5 g ae/ha, 21 DAA, may represent multiple trials
In short: (§1)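 Greenhouse plants at 2nd–3rd true leaf stage (10–17 d, ~29/26 °C, 14-h photoperiod) sprayed postemergence with ester forms in acetone–DMSO plus 1.25% crop oil concentrate at 187 L/ha. Visual injury scored 0–100% versus untreated plants after 3 weeks; GR50/GR80 derived by probit analysis.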

[2] = tested on: Cyperus esculentus L. (yellow nutsedge); test: as above; type: in vivo; settings: rice cropping systems, 17.5 g ae/ha, 21 DAA, may represent multiple trials
In short: as §1

[3] = tested on: Cyperus iria L. (rice flatsedge); test: as above; type: in vivo; settings: rice cropping systems, 17.5 g ae/ha, 21 DAA, may represent multiple trials
In short: as §1

[4] = tested on: Echinochloa colonum (L.) LINK (junglerice); test: as above; type: in vivo; settings: Echinochloa colona, post-emergence, 504 h, rice cropping systems, 17.5 g ae/ha, 21 DAA, may represent multiple trials, read-out: Visual Injury (%) ECHCO
In short: as §1

[5] = tested on: Echinochloa crus-galli (L.) P.BEAUV. (barnyardgrass); test: as above; type: in vivo; settings: rice cropping systems, 17.5 g ae/ha, 21 DAA, may represent multiple trials
In short: as §1

[6] = tested on: Scirpus juncoides ROXB. (Japanese bulrush); test: as above; type: in vivo; settings: Schoenoplectiella juncoides, post-emergence, 504 h; rice cropping systems, foliar-applied, 17.5 g ae/ha, 21 DAA; may represent multiple trials; read-out: Visual Injury (%) SCPJU
In short: as §1

[7] = tested on: Sesbania exaltata (RAF.) CORY/RYDB. (hemp sesbania); test: as above; type: in vivo; settings: rice cropping systems, 17.5 g ae/ha, 21 DAA, may represent multiple trials
In short: as §1

[8] = tested on: Echinochloa crus-galli (L.) P.BEAUV. (barnyardgrass); test: In-water applied herbicidal activity in transplanted paddy rice (Example 17); type: in vivo; settings: Echinochloa crus-galli, 504 h; rice cropping systems, in-water applied (paddy), 35 g ae/ha, 21 DAA; may represent multiple trials; read-out: Visual Injury (%) ECHCG
In short: (§2)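 Ester forms of test compounds, in acetone diluted with aqueous Agri-dex (final 1.25% v/v crop oil concentrate), were injected into the flood water of paddy pots holding weeds or rice at the 2nd–3rd leaf stage in mud (pH ~7.3–7.8). Visual injury versus untreated plants was scored 0–100% after 3 weeks in greenhouse (~29/26 °C). GR50/GR80 were derived by probit analysis.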

[9] = tested on: Scirpus juncoides ROXB. (Japanese bulrush); test: as above; type: in vivo; settings: Schoenoplectiella juncoides, 504 h; rice cropping systems, in-water applied (paddy), 35 g ae/ha, 21 DAA; may represent multiple trials; read-out: Visual Injury (%) SCPJU
In short: as §2

[10] = tested on: Brassica sinapis (Mustard, wild); test: Postemergence herbicidal activity in cereal crops (Example 14); type: in vivo; settings: wheat cropping systems, postemergence spray, 8.75 g ae/ha, 21 DAA
Method: (§3) Seeds of the desired test plant species were planted in Sun Gro Metro-Mix® 360 planting mixture, which typically has a pH of 6.0 to 6.8 and an organic matter content of about 30 percent, in plastic pots with a surface area of 84.6 cm^2. When required to ensure good germination and healthy plants, a fungicide treatment and/or other chemical or physical treatment was applied. The plants were grown for 7-36 d in a greenhouse with an approximate 14 h photoperiod which was maintained at about 18° C. during the day and 17° C. during the night. Nutrients and water were added on a regular basis and supplemental lighting was provided with overhead metal halide 1000-Watt lamps as necessary. The plants were employed for testing when they reached the second or third true leaf stage.
(§4) Treatments consisted of esters of compounds 33, 34, 39, 40 and 42 and B, F, G and H. Compound B is methyl 4-amino-3-chloro-6-(4-cyclopropylphenyl)-5-fluoropicolinate; compound F is methyl 6-amino-2-(4-chloro-2-fluoro-3-methoxyphenyl)-5-methoxypyrimidine-4-carboxylate; compound G is methyl 4-amino-3-chloro-6-(4-chloro-2-fluoro-3-methoxyphenyl)picolinate; and compound H is methyl 4-amino-3-chloro-6-(4-chloro-2-fluoro-3-(1-fluoroethyl)phenyl)-5-fluoropicolinate. A weighed amount, determined by the highest rate to be tested, of each test compound was placed in a 25 mL glass vial and was dissolved in 8 mL of a 97:3 v/v mixture of acetone and DMSO to obtain concentrated stock solutions. […] The concentrated stock solutions obtained were diluted with 16 mL of an aqueous mixture containing acetone, water, isopropyl alcohol, DMSO, Agri-dex crop oil concentrate, and Triton® X-77 surfactant in a 64.7:26.0:6.7:2.0:0.7:0.01 v/v ratio to obtain spray solutions containing the highest application rates. Additional application rates were obtained by serial dilution of 12 mL of the high rate solution into a solution containing 4 mL of a 97:3 v/v mixture of acetone and DMSO and 8 mL of an aqueous mixture containing acetone, water, isopropyl alcohol, DMSO, Agri-dex crop oil concentrate, and Triton® X-77 surfactant in a 48.5:39.0:10.0:1.5:1.0:0.02 v/v ratio to obtain ½×, ¼×, ⅛× and 1/16× rates of the high rate. Compound requirements are based upon a 12 mL application volume at a rate of 187 L/ha. Formulated compounds were applied to the plant material with an overhead Mandel track sprayer equipped with 8002E nozzles calibrated to deliver 187 L/ha over an application area of 0.503 m^2 at a spray height of 18 inches (43 cm) above average plant canopy height. Control plants were sprayed in the same manner with the blank.
(§5) The treated plants and control plants were placed in a greenhouse as described above and watered by sub-irrigation to prevent wash-off of the test compounds. After 20-22 d, the condition of the test plants as compared with that of the untreated plants was determined visually and scored on a scale of 0 to 100 percent where 0 corresponds to no injury and 100 corresponds to complete kill.

[11] = tested on: Pennisetum glaucum (Foxtail, yellow); test: as above; type: in vivo; settings: wheat cropping systems, postemergence spray, 8.75 g ae/ha, 21 DAA
Method: as §3, §4, §5

[12] = tested on: Veronica persica (Speedwell, birdseye); test: as above; type: in vivo; settings: wheat cropping systems, postemergence spray, 8.75 g ae/ha, 21 DAA
Method: as §3, §4, §5

Avena fatua (Oat, wild) = test: as above; type: in vivo; settings: wheat cropping systems, postemergence spray, 35 g ae/ha, 21 DAA
Method: as §3, §4, §5

[13] = tested on: Lolium multiflorum (Ryegrass, Italian); test: as above; type: in vivo; settings: wheat cropping systems, postemergence spray, 17.5 g ae/ha, 21 DAA
Method: as §3, §4, §5

[14] = tested on: Matricaria chamomilla (Mayweed, wild); test: as above; type: in vivo; settings: wheat cropping systems, postemergence spray, 35 g ae/ha, 21 DAA
Method: as §3, §4, §5

[15] = tested on: Setaria viridis (Foxtail, green); test: as above; type: in vivo; settings: wheat cropping systems, postemergence spray, 17.5 g ae/ha, 21 DAA
Method: as §3, §4, §5

Row | Compound | Visual Injury (%) AESSE [1] [%] | Visual Injury (%) CYPES [2] [%] | Visual Injury (%) CYPIR [3] [%] | pest or weed control at 17.5 g/ha [4] [%] | Visual Injury (%) ECHCG [5] [%] | pest or weed control at 17.5 g/ha [6] [%] | Visual Injury (%) SEBEX [7] [%] | pest or weed control at 35 g/ha [8] [%] | pest or weed control at 35 g/ha [9] [%] | melting point [°C] | Visual Injury (%) SINAR [10] [%] | Visual Injury (%) PESGL [11] [%] | Visual Injury (%) VERPE [12] [%] | Visual Injury (%) AVEFA (Avena fatua (Oat, wild)) [%] | Visual Injury (%) LOLMU [13] [%] | Visual Injury (%) MATCH [14] [%] | Visual Injury (%) SETVI [15] [%]
1 | CCOc1c(Cl)ccc(-c2nc(C(=O)OCc3ccccc3)c(Cl)c(N)c2F)c1F [Compound 41, benzyl 4-amino-3-chloro-6-(4-chloro-3-ethoxy-2-fluorophenyl)-5-fluoropicolinate] | 100 | 100 | 100 | 95 | 95 | 90 | 99 | 95 | 100 | 122 to 124 | – | – | – | – | – | – | –
2 | CCOc1c(Cl)ccc(-c2nc(C(=O)OC)c(Cl)c(N)c2F)c1F [Compound A, methyl 4-amino-3-chloro-6-(4-chloro-3-ethoxy-2-fluorophenyl)-5-fluoropicolinate] | 0 | 60 | 80 | 50 | 60 | 20 | 20 | 40 | 60 | 170 to 172 | – | – | – | – | – | – | –
3 | COC(=O)c1nc(-c2ccc(Cl)c(C(C)F)c2F)c(F)c(N)c1Cl (stereo not drawn) [Compound H, methyl 4-amino-3-chloro-6-(4-chloro-2-fluoro-3-(1-fluoroethyl)phenyl)-5-fluoropicolinate, reference compound] | – | – | – | – | – | – | – | – | – | – | 87 | 0 | 80 | – | – | – | –
4 | COc1c(N)nc(-c2ccc(Cl)c(OC)c2F)nc1C(=O)OCCc1ccccc1 [Compound 34] | – | – | – | – | – | – | – | – | – | – | – | – | – | 40 | 70 | 20 | 80
5 | CC(F)c1c(Cl)ccc(-c2nc(C(=O)OCc3ccccc3)c(Cl)c(N)c2F)c1F (stereo not drawn) [Compound 40, benzyl 4-amino-3-chloro-6-(4-chloro-2-fluoro-3-(1-fluoroethyl)phenyl)-5-fluoropicolinate] | – | – | – | – | – | – | – | – | – | – | 98 | 65 | 95 | – | – | – | –
